In PubChem BioAssay AID2060910 (Molecular Pharmacology Branch, DTP, NCI, 2025):

Tested on: 242566-281-R-J2-PDC complex spheroid viability
Assay: Anticancer human tumor 242566-281-R-J2-PDC patient-derived pancreatic carcinoma cell line growth inhibition [RAS]
Conditions: for IC50: curve of first compound; for viability, T/C: stronger effect = lower value
From the text: RAS pathway inhibitors in Combinations in Complex Spheroids
A high-throughput screen of multi-cell type tumor spheroids was designed to identify active combinations of RAS pathway inhibitors and targeted small molecules. Complex spheroids include a stromal component modeled by human endothelial cells (HUVEC) and fibroblasts modeled by human mesenchymal stem cells (MSCs). The concentration ranges selected for each drug and investigational agent were based upon clinically achievable concentrations if the clinical Cmax of the agent was known.
Compounds. The drugs and investigational agents: abemaciclib (NSC768073), cobimetinib (NSC768068), divarasib (GDC6063, NSC841802), docetaxel (NSC628503), GDC-1971 (RLY-1971, NSC841576), gemcitabine (NSC613327), inavolisib (NSC800729), ipatasertib (NSC767898), KB-0742 (NSC834161), MRTX-1133 (NSC836407), osimertinib (NSC779217), RMC-4630 (NSC839698), RMC-6236 (NSC851965), RMC-6291 (NSC852671), Ro-3306 (NSC812927), sapanisertib (NSC764658), SN-38 (NSC673596), staurosporine (NSC755774), SY5609 (NSC837396), and tovorafenib (DAY101, NSC766906), were obtained from the National Cancer Institute (NCI) Developmental Therapeutics Program Chemical Repository. The FDA-approved anticancer drug set is available from the NCI Developmental Therapeutics Program. […] The stock solutions were prepared in dimethyl sulfoxide (DMSO, Sigma-Aldrich, St. Louis, MO, cat. D2650) at 800-fold the tested concentration and stored at -70 degrees C prior to their use. All drugs and investigational agents were tested over a range starting from a high concentration at or near the clinical Cmax and decreasing in half-log increments. If the clinical Cmax for an agent had not been determined, the highest concentration tested was 10 microM.
Cell Culture. All cells were maintained in an incubator at 37 degrees C and 5% CO2 with 95% humidity. The PDC lines were cultured according to standard operating procedures established by the NCI PDMR. All PDCs were thawed and cultured in Matrigel-coated flasks prepared with a working solution of 1X Ham's F-12 nutrient mix, without supplementation (Invitrogen, Waltham, MA, cat. 11765054), 100 U/mL penicillin-streptomycin (Invitrogen, cat. 15140122), and 2.5% Matrigel (Corning Inc., Corning, NY, cat. 354248) for the first three passages. The 362531-283-R-J2-PDC and 782815-120-R-J1-PDC lines were cultured in 6C/Colon 1B media, which includes advanced DMEM/F-12 (Thermo Fisher Scientific, cat. 12634028), 10 mM HEPES (Thermo Fisher Scientific, cat. 15630080), 1X GlutaMAX supplement (Thermo Fisher Scientific, cat. 35050061), 0.1 mg/mL primocin (InvivoGen, San Diego, CA, cat. ant-pm-2), 10% defined fetal bovine serum, heat inactivated (HyClone Laboratories Inc., Logan, UT, cat. SH30070.03HI), 50% L-WRN conditioned media (ATCC, cat. CRL-3276), 1.25 mM N-Acetyl-L-cysteine (Sigma-Aldrich, cat. A9165), 10 mM nicotinamide (Sigma-Aldrich, cat. N0636), 1X B-27 supplement (Thermo Fisher Scientific, cat. 17504044), 1X N-2 supplement (Thermo Fisher Scientific, cat. 17502048), 50 ng/mL human EGF (Thermo Fisher Scientific, cat. PHG0311), and 10 microM Y-27632 dihydrochloride (Tocris Bioscience, cat. 1254). The K12877-001-R-J1-PDC line was cultured in 6I media, which includes all 6C/Colon 1B media plus 10 ng/mL human FGF-10 (PeproTech, cat. 100-26), 1 ng/mL human FGF-2 (PeproTech, cat. 100-18B), 1 µM prostaglandin E2 (Tocris Bioscience, cat. 2296), […] hydrocortisone (Sigma-Aldrich, cat. H4001), and […] bovine insulin (Sigma-Aldrich, cat. I6634). The K86415-001-R-J1-PDC line was cultured in 6D media, which includes all 6C/Colon 1B media components minus the L-WRN conditioned media. The 485176-168-R4-J1-PDC was cultured in PANC media, which includes all 6C/Colon 1B media plus 100 ng/mL human FGF-10 (PeproTech, cat. 100-26), 500 nM SB-431542 (Selleckchem, cat. S1067), and 10 nM gastrin (Tocris Bioscience, cat. 3006). […]
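Note: spheroids exposed to compound for 7 days before readout.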
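Throughout, for viability, T/C: 100% = DMSO vehicle control wells.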

**Q.** With CCN1CCN(Cc2ccc(Nc3ncc(F)c(-c4cc(F)c5nc(C)n(C(C)C)c5c4)n3)nc2)CC1 + C#Cc1c(F)ccc2cc(O)cc(-c3ncc4c(N5CC6CCC(C5)N6)nc(OCC56CCCN5CC(F)C6)nc4c3F)c12 as the compound, how does the IC50 (second compound 0.0316 µM) read?
**A.** > 1000 nM

**Q.** And the IC50 (second compound 0.1 µM)?
**A.** > 1000 nM

**Q.** What about the IC50 (second compound 0.316 µM) of the same compound?
**A.** > 1000 nM

**Q.** And the IC50 (second compound 1 µM)?
**A.** 3.16 nM

**Q.** What about the IC50 (second compound 3.16 µM) of the same compound?
**A.** < 3.16 nM

**Q.** And the IC50 (second compound 10 µM)?
**A.** < 3.16 nM

**Q.** And the viability, T/C (second compound 0.0316 µM, first compound 0.00316 µM)?
**A.** 110%

**Q.** What about the viability, T/C (second compound 0.0316 µM, first compound 0.01 µM) of the same compound?
**A.** 108%

**Q.** And the viability, T/C (second compound 0.0316 µM, first compound 0.0316 µM)?
**A.** 85%

**Q.** What about the viability, T/C (second compound 0.0316 µM, first compound 0.1 µM) of the same compound?
**A.** 61.7%

**Q.** What about the viability, T/C (second compound 0.0316 µM, first compound 0.316 µM) of the same compound?
**A.** 84.9%

**Q.** What about the viability, T/C (second compound 0.0316 µM, first compound 1 µM) of the same compound?
**A.** 99%

**Q.** And the viability, T/C (second compound 0.1 µM, first compound 0.00316 µM)?
**A.** 95%

**Q.** And the viability, T/C (second compound 0.1 µM, first compound 0.01 µM)?
**A.** 81.1%

**Q.** And the viability, T/C (second compound 0.1 µM, first compound 0.0316 µM)?
**A.** 77.5%

**Q.** And the viability, T/C (second compound 0.1 µM, first compound 0.1 µM)?
**A.** 56.5%

**Q.** And the viability, T/C (second compound 0.1 µM, first compound 0.316 µM)?
**A.** 76%

**Q.** What about the viability, T/C (second compound 0.1 µM, first compound 1 µM) of the same compound?
**A.** 85.2%

**Q.** And the viability, T/C (second compound 0.316 µM, first compound 0.00316 µM)?
**A.** 79.9%

**Q.** What about the viability, T/C (second compound 0.316 µM, first compound 0.01 µM) of the same compound?
**A.** 72%

**Q.** What about the viability, T/C (second compound 0.316 µM, first compound 0.0316 µM) of the same compound?
**A.** 46.7%

**Q.** And the viability, T/C (second compound 0.316 µM, first compound 0.1 µM)?
**A.** 51.9%

**Q.** And the viability, T/C (second compound 0.316 µM, first compound 0.316 µM)?
**A.** 72%

**Q.** What about the viability, T/C (second compound 0.316 µM, first compound 1 µM) of the same compound?
**A.** 87.3%

**Q.** What about the viability, T/C (second compound 1 µM, first compound 0.00316 µM) of the same compound?
**A.** 64.5%

**Q.** What about the viability, T/C (second compound 1 µM, first compound 0.01 µM) of the same compound?
**A.** 62.1%

**Q.** And the viability, T/C (second compound 1 µM, first compound 0.0316 µM)?
**A.** 50.5%

**Q.** And the viability, T/C (second compound 1 µM, first compound 0.1 µM)?
**A.** 43.5%

**Q.** And the viability, T/C (second compound 1 µM, first compound 0.316 µM)?
**A.** 63.3%

**Q.** What about the viability, T/C (second compound 1 µM, first compound 1 µM) of the same compound?
**A.** 77.1%

**Q.** What about the viability, T/C (second compound 3.16 µM, first compound 0.00316 µM) of the same compound?
**A.** 56.6%

**Q.** What about the viability, T/C (second compound 3.16 µM, first compound 0.01 µM) of the same compound?
**A.** 47.2%

**Q.** And the viability, T/C (second compound 3.16 µM, first compound 0.0316 µM)?
**A.** 31.6%

**Q.** What about the viability, T/C (second compound 3.16 µM, first compound 0.1 µM) of the same compound?
**A.** 37.3%

**Q.** What about the viability, T/C (second compound 3.16 µM, first compound 0.316 µM) of the same compound?
**A.** 58.5%

**Q.** What about the viability, T/C (second compound 3.16 µM, first compound 1 µM) of the same compound?
**A.** 72.4%

**Q.** And the viability, T/C (second compound 10 µM, first compound 0.00316 µM)?
**A.** 54.3%

**Q.** What about the viability, T/C (second compound 10 µM, first compound 0.01 µM) of the same compound?
**A.** 48.2%

**Q.** What about the viability, T/C (second compound 10 µM, first compound 0.0316 µM) of the same compound?
**A.** 40.1%

**Q.** What about the viability, T/C (second compound 10 µM, first compound 0.1 µM) of the same compound?
**A.** 37.6%

**Q.** And the viability, T/C (second compound 10 µM, first compound 0.316 µM)?
**A.** 51.7%

**Q.** And the viability, T/C (second compound 10 µM, first compound 1 µM)?
**A.** 63.1%
